Read-outs that look alike come from different tables or passages of the source.

These results are taken from EP2261258A1, “MCSP-aligned scFv antibody fragments and use of same” (Schuler, Gerold, priority 2009, dated 2010).

One assay has as its system AML. The settings on record: Bross et al. 2001; cited from earlier work.
For assay [1] the following is noted: melanoma patients, cited from earlier work.
In assay [2] the target is Melanom-assoziiertes Chondroitinsulfat Proteoglykan (MCSP) (human) (UniProt Q6UVK1). Briefly: flow cytometry, saturation binding on A2058 melanoma cells, half-maximal saturation concentration.
The target is the same in assay [3]. As to the kind of experiment: ratio of KD values, flow cytometry on A2058 cells. In general terms: Flow cytometry measures light scatter and fluorescence of single cells or particles in a stream.

Consider “GO: gegen CD33 gerichteter humanisierter Antikörper gekoppelt an Calicheamycin”, for which, in the assay on AML, the “Patienten, die ansprechen” value is on record as around 30% and the “mittlere rückfallfreie Überlebenszeit” value is on record as 6,8 Monate. `CN(C)/N=N/c1[nH]cnc1C(N)=O` [Dacarbazin, Dimethyl-trizeno-imidazol-Carboxamid]: the Ansprechraten in assay [1] (according to newer studies (Avril et al. 2004)) is recorded as around 7%; in assay [1] (as given in most studies) it was 10 - 20%.

B1: scFv-Fragment MCSP HL (scFv)
scFv: MADYKQVKLQQSGPELVKPGASVKISCKASGYAFSRSWMNWVKQRPGQGLEWIGRIYPGDGDTNYNGKFKGKATLTADKSSSTAYMQVSSLTSVDSAVYFCARGNTVVVPYTMDYWGQGTTVTVSSGGGGSGGGGSGGGGSDIELTQSPASLAVSLGQRATISCRASESVDSYGNSFMHWYQQKPGQPPKLLIYLASNLESGVPARFSGSGSRTDFTLTIDPVEADDAATYYCQQNNEDPLTFGGGTKLELKRSASGADHHHHHH
As to B1, in assay [2], the equilibrium dissociation constant (Kd) (in general, the equilibrium constant for the complex coming apart) is 1.65 nM. Also, the fold improvement of affinity against the original scFv MCSP in assay [3] is 14 fold.

B2: scFv-Fragment MCSP (scFv)
scFv: MADYKDIVMTQSPASLAVSLGQRATISCRASESVDSYGNSFMHWYQQKPGQPPKLLIYLASNLESGVPARFSGSGSRTDFTLTIDPVEADDAATYYCQQNNEDPLTFGSGTKLETKRGGGGSGGGGSGGGGSGGGGSQVQLKQSGPELVKPGASVKISCKASGYAFSRSWMNWVKQRPGQGLEWIGRIYPGDGDTNYNGKFKGKATLTADKSSSTAYMQVSSLTSVDSAVYFCARGNTVVVPYTMDYWGQGTSVTVPSASGADHHHHHH
B2 showed a Kd in assay [2] of 23.3 nM.
